# Measured values published in PubChem BioAssay (NCI).
#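 Protocol summary: plate cells (96-well), add compound at 5 concentrations, incubate 48 h, interpolate endpoints linearly. Definition used: TGI = concentration required for complete inhibition of growth.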
# Assays:
# Test in all cases: NCI tumour cell line growth inhibition, 48 h
# [1] = test system: NCI/ADR-RES ovarian
# [2] = test system: KM12 colon
# [3] = test system: HCT-15 colon
# [4] = test system: BT-549 breast
# [5] = test system: TK-10 renal
# [6] = test system: SNB-19 CNS
# [7] = test system: NCI-H522 lung
# [8] = test system: SF-268 CNS
# [9] = test system: MOLT-4 leukemia
# [10] = test system: SR leukemia
# [11] = test system: SK-MEL-2 melanoma
# [12] = test system: UACC-257 melanoma
# [13] = test system: COLO 205 colon
# [14] = test system: OVCAR-4 ovarian
# [15] = test system: SW-620 colon
# [16] = test system: MDA-N
# [17] = test system: OVCAR-5 ovarian
# [18] = test system: SNB-75 CNS
# [19] = test system: HT29 colon
# [20] = test system: T-47D breast
# [21] = test system: U251 CNS
# [22] = test system: ACHN renal
# [23] = test system: SK-MEL-28 melanoma
# [24] = test system: HCT-116 colon
# [25] = test system: LOX IMVI melanoma
# [26] = test system: SN12C renal
# [27] = test system: CAKI-1 renal
# [28] = test system: SF-539 CNS
# [29] = test system: RXF 393 renal
# [30] = test system: MALME-3M melanoma
# [31] = test system: DU-145 prostate
# [32] = test system: NCI-H226 lung
# [33] = test system: CCRF-CEM leukemia
# [34] = test system: MCF7 breast
# [35] = test system: K-562 leukemia
# [36] = test system: M14 melanoma
# [37] = test system: OVCAR-3 ovarian
# [38] = test system: HL-60(TB) leukemia
# [39] = test system: EKVX NSCLC
# [40] = test system: UACC-62 melanoma
# [41] = test system: HS 578T breast
# [42] = test system: HCC-2998 colon
# [43] = test system: NCI-H460 lung
# [44] = test system: A549 NSCLC
# [45] = test system: IGROV1 ovarian
# [46] = test system: PC-3 prostate
# [47] = test system: MDA-MB-231 breast
# [48] = test system: 786-0 renal
# [49] = test system: SK-MEL-5 melanoma
# [50] = test system: MDA-MB-435
# [51] = test system: NCI-H23 lung
# [52] = test system: RPMI-8226 leukemia
# [53] = test system: SK-OV-3 ovarian
# [54] = test system: UO-31 renal
# [55] = test system: OVCAR-8 ovarian
# [56] = test system: HOP-62 NSCLC
# [57] = test system: SF-295 CNS
# [58] = test system: HOP-92 NSCLC
# [59] = test system: A498 renal
structure (smiles),measurement,setting,value
O=C1C(=Cc2cccc(Cl)c2)N=C(c2ccccc2)N1n1c(-c2ccccc2)nc2ccccc2c1=O,TGI,[1],> 100 µM
same,TGI,[2],> 100 µM
same,TGI,[3],> 100 µM
same,TGI,[4],> 100 µM
same,TGI,[5],> 100 µM
same,TGI,[6],> 100 µM
same,TGI,[7],51.7 µM
same,TGI,[8],> 100 µM
same,TGI,[9],> 100 µM
same,TGI,[10],> 100 µM
same,TGI,[11],> 100 µM
same,TGI,[12],> 100 µM
same,TGI,[13],> 100 µM
same,TGI,[14],> 100 µM
same,TGI,[15],> 100 µM
same,TGI,[16],> 100 µM
same,TGI,[17],> 100 µM
same,TGI,[18],> 100 µM
same,TGI,[19],> 100 µM
same,TGI,[20],> 100 µM
same,TGI,[21],> 100 µM
same,TGI,[22],> 100 µM
same,TGI,[23],> 100 µM
same,TGI,[24],> 100 µM
same,TGI,[25],> 100 µM
same,TGI,[26],> 100 µM
same,TGI,[27],> 100 µM
same,TGI,[28],> 100 µM
same,TGI,[29],> 100 µM
same,TGI,[30],> 100 µM
same,TGI,[31],> 100 µM
same,TGI,[32],> 100 µM
same,TGI,[33],> 100 µM
same,TGI,[34],> 100 µM
same,TGI,[35],> 100 µM
same,TGI,[36],54.5 µM
same,TGI,[37],> 100 µM
same,TGI,[38],> 100 µM
same,TGI,[39],> 100 µM
same,TGI,[40],96.2 µM
same,TGI,[41],> 100 µM
same,TGI,[42],> 100 µM
same,TGI,[43],> 100 µM
same,TGI,[44],> 100 µM
same,TGI,[45],> 100 µM
same,TGI,[46],> 100 µM
same,TGI,[47],> 100 µM
same,TGI,[48],> 100 µM
same,TGI,[49],> 100 µM
same,TGI,[50],> 100 µM
same,TGI,[51],68.6 µM
same,TGI,[52],> 100 µM
same,TGI,[53],> 100 µM
same,TGI,[54],> 100 µM
same,TGI,[55],> 100 µM
same,TGI,[56],99.8 µM
same,TGI,[57],> 100 µM
same,TGI,[58],81.4 µM
Cc1cccc(-c2cccc(COCc3cccc(-c4cccc(CO)n4)n3)n2)n1,TGI,[1],> 50 µM
same,TGI,[2],> 50 µM
same,TGI,[3],> 50 µM
same,TGI,[4],> 50 µM
same,TGI,[5],> 50 µM
same,TGI,[6],> 50 µM
same,TGI,[7],> 50 µM
same,TGI,[8],> 50 µM
same,TGI,[9],> 50 µM
same,TGI,[10],> 50 µM
same,TGI,[11],> 50 µM
same,TGI,[12],> 50 µM
same,TGI,[13],> 50 µM
same,TGI,[14],> 50 µM
same,TGI,[15],> 50 µM
same,TGI,[16],> 50 µM
same,TGI,[17],> 50 µM
same,TGI,[18],> 50 µM
same,TGI,[59],> 50 µM
same,TGI,[19],> 50 µM
same,TGI,[20],> 50 µM
same,TGI,[21],> 50 µM
same,TGI,[22],> 50 µM
same,TGI,[23],> 50 µM
same,TGI,[24],> 50 µM
same,TGI,[25],> 50 µM
same,TGI,[26],> 50 µM
same,TGI,[27],> 50 µM
same,TGI,[28],> 50 µM
same,TGI,[31],> 50 µM
same,TGI,[32],> 50 µM
same,TGI,[34],> 50 µM
same,TGI,[35],> 50 µM
same,TGI,[36],> 50 µM
same,TGI,[37],> 50 µM
same,TGI,[38],> 50 µM
same,TGI,[39],> 50 µM
same,TGI,[40],> 50 µM
same,TGI,[41],> 50 µM
same,TGI,[42],> 50 µM
same,TGI,[43],> 50 µM
same,TGI,[44],> 50 µM
same,TGI,[45],> 50 µM
same,TGI,[46],> 50 µM
same,TGI,[47],> 50 µM
same,TGI,[48],> 50 µM
same,TGI,[49],> 50 µM
same,TGI,[50],> 50 µM
same,TGI,[52],> 50 µM
same,TGI,[53],> 50 µM
same,TGI,[54],> 50 µM
same,TGI,[55],> 50 µM
same,TGI,[56],> 50 µM
same,TGI,[57],> 5 µM
same,TGI,[58],> 50 µM
